From the Kinase Knowledgebase extract (Sharma et al. 2016)
In brackets after ≈: the same amount, converted by molar mass. Several values for one entry are separate records, joined by “and”; a condition that tells them apart may be missing. Equal entries are not always repeated.

Tests used:
[1] = molecular target: CDK2 (UniProt P24941); assay: Enzyme Assay
[2] = molecular target: CDK2 (human) (UniProt P24941); assay: Cell-Based Assay
[3] = tested on: CDK2 (rat); assay: Cell-Based Assay; details: rasmc
[4] = tested on: CDK2 (murine); assay: Animal Model; details: l1210
[5] = tested on: CDK2 (mouse); assay: Cell-Based Assay; details: p388

Compound: CC(C)[C@H](CO)Nc1nc(NCc2ccc(Cl)cc2)c2ncn(C(C)C)c2n1
- IC50 [1]: 0.19 µg/mL (≈ 0.472 µM)

Compound: Clc1ccc(COc2nc(Cl)nc3[nH]cnc23)cc1
- IC50 [1]: 60 µg/mL (≈ 203 µM)

Compound: COc1ccc(CNc2nc(Cl)nc3c2ncn3CCCCl)cc1
- IC50 [1]: > 60 µg/mL

Compound: CC(C)n1cnc2c(Nc3ccccc3)nc(Cl)nc21
- IC50 [1]: 1 µg/mL (≈ 3.48 µM)

Compound: COc1ccc(CNc2nc(N(CCO)CCO)nc3c2ncn3C(F)(C(F)(F)F)C(F)(F)F)cc1
- IC50 [1]: 40 µg/mL (≈ 76 µM)

Compound: Cn1cnc2c(OCc3ccc(Cl)cc3)nc(Cl)nc21
- IC50 [1]: 60 µg/mL (≈ 194 µM)

Compound: CC(C)n1cnc2c(NCc3ccc(Cl)cc3)nc(NCC(O)c3ccccc3)nc21 (stereo unspecified)
- IC50 [1]: 0.08 µg/mL (≈ 0.183 µM)

Compound: CC(C)n1cnc2c(NCc3ccc(Cl)cc3)nc(N(CCN)CCO)nc21
- IC50 [1]: 0.07 µg/mL (≈ 0.173 µM)
- IC50 ([2]; mrc 5): 1 µg/mL (≈ 2.48 µM)

Compound: CC(C)n1cnc2c(NCc3ccc(C(F)(F)F)cc3)nc(N(CCO)CCO)nc21
- IC50 [1]: 0.56 µg/mL (≈ 1.28 µM)

Compound: CC(C)n1cnc2c(NCc3ccc(-c4ccccc4)cc3)nc(N(CCO)CCO)nc21
- IC50 [1]: 0.6 µg/mL (≈ 1.34 µM)
- IC50 ([2]; caco-2): 3.5 µg/mL (≈ 7.84 µM)
- IC50 ([2]; mcf-7): 1 µg/mL (≈ 2.24 µM)
- IC50 ([2]; ovcar): 2 µg/mL (≈ 4.48 µM)
- IC50 ([2]; panc1): 1.3 µg/mL (≈ 2.91 µM)

Compound: CC(C)n1cnc2c(NCc3ccc(F)cc3)nc(NC[C@H](C)O)nc21
- IC50 [1]: 0.22 µg/mL (≈ 0.614 µM)

Compound: COc1ccc(CNc2nc(N(Cc3cccnc3)CC(C)C#N)nc3c2ncn3C(C)C)cc1 (stereo unspecified)
- IC50 [1]: 1 µg/mL (≈ 2.13 µM)

Compound: COc1ccc(CNc2nc(Cl)nc3c2ncn3C(F)(F)F)cc1
- IC50 [1]: > 60 µg/mL

Compound: CC(C)n1cnc2c(NCc3ccc(Cl)cc3)nc(NC[C@@H](N)Cc3ccccc3)nc21
- IC50 [1]: 1.07 µg/mL (≈ 2.38 µM)

Compound: CC(N)CNc1nc(NCc2ccc(F)cc2)c2ncn(C(C)C)c2n1 (stereo unspecified)
- IC50 [1]: 0.48 µg/mL (≈ 1.34 µM)

Compound: CC(C)n1cnc2c(NCc3ccc(Cl)cc3)nc(NC[C@@H](C)O)nc21
- IC50 [1]: 0.43 µg/mL (≈ 1.15 µM)

Compound: CC(C)n1cnc2c(NCc3ccc(Cl)cc3)nc(NCCCN)nc21
- IC50 [1]: 1 µg/mL (≈ 2.67 µM)

Compound: COc1ccc(CNc2nc(Cl)nc3[nH]cnc23)cc1
- IC50 [1]: 60 µg/mL (≈ 207 µM)

Compound: CC(C)n1cnc2c(NCc3ccc(Cl)cc3)nc(NC[C@H](C)O)nc21
- IC50 [1]: 0.38 µg/mL (≈ 1.01 µM)

Compound: COc1ccc(CNc2nc(NCCO)nc3c2ncn3C(C)C)cc1
- IC50 [1]: 4 µg/mL (≈ 11.2 µM)

Compound: OCCNc1nc(NCc2ccccc2)nc2[nH]cnc12
- IC50 [1]: > 60 µg/mL

Compound: Cn1cnc2c(NCCO)nc(NCCO)nc21
- IC50 [1]: > 60 µg/mL

Compound: CC(N)CNc1nc(NCc2ccc(Cl)cc2)c2ncn(C(C)C)c2n1 (stereo unspecified)
- IC50 [1]: 0.05 µg/mL (≈ 0.134 µM)
- IC50 ([2]; mrc 5): 1 µg/mL (≈ 2.67 µM)

Compound: COc1ccc(CNc2nc(N(CCO)CCO)nc3c2ncn3CCO)cc1
- IC50 [1]: 0.5 µg/mL (≈ 1.24 µM)

Compound: CC(C)n1cnc2c(NCc3ccc(S(N)(=O)=O)cc3)nc(NCCN)nc21
- IC50 [1]: 9 µg/mL (≈ 22.2 µM)

Compound: CC(C)n1cnc2c(NCc3ccc(F)cc3)nc(NC[C@H]3CCCO3)nc21
- IC50 [1]: 0.58 µg/mL (≈ 1.51 µM)

Compound: CC(C)n1cnc2c(NCc3ccc(-c4ccccc4)cc3)nc(NCC(O)CO)nc21 (stereo unspecified)
- IC50 [1]: 0.6 µg/mL (≈ 1.39 µM)

Compound: CC(C)n1cnc2c(NCc3ccc(Cl)cc3)nc(N[C@@H](Cc3ccccc3)C(N)=O)nc21
- IC50 [1]: 1.07 µg/mL (≈ 2.31 µM)

Compound: CC(C)n1cnc2c(NCC3CCCCC3)nc(Cl)nc21
- IC50 [1]: 1 µg/mL (≈ 3.25 µM)

Compound: CC(C)n1cnc2c(Nc3cccc(-c4ccc(C#N)cc4)c3)nc(N(CCO)CCO)nc21
- IC50 [1]: 0.5 µg/mL (≈ 1.09 µM)

Compound: CC(C)n1cnc2c(NCc3ccc(F)cc3)nc(NC[C@@H](C)O)nc21
- IC50 [1]: 0.23 µg/mL (≈ 0.642 µM)

Compound: COc1cccc(CNc2nc(Cl)nc3c2ncn3C(C)C)c1
- IC50 [1]: 0.9 µg/mL (≈ 2.71 µM)

Compound: CC(C)Cn1cnc2c(NCc3ccc(C(F)(F)F)cc3)nc(N(CCO)CCO)nc21
- IC50 [1]: 59 µg/mL (≈ 130 µM)

Compound: CC(C)n1cnc2c(NCc3ccc(Cl)cc3)nc(NCCN)nc21
- IC50 [1]: 0.35 µg/mL (≈ 0.973 µM)
- IC50 ([2]; mrc 5): 1 µg/mL (≈ 2.78 µM)

Compound: CC(C)n1cnc2c(NCc3ccc(Cl)cc3)nc(NCCCCCN)nc21
- IC50 [1]: 31 µg/mL (≈ 77.1 µM)

Compound: COc1ccc(CNc2nc(N3CCCC(O)C3)nc3c2ncn3C(C)C)cc1 (stereo unspecified)
- IC50 [1]: 1 µg/mL (≈ 2.52 µM)

Compound: COc1ccc(CNc2nc(N(CC(C)O)CC(C)O)nc3c2ncn3C(C)C)cc1 (stereo unspecified)
- IC50 [1]: 0.8 µg/mL (≈ 1.87 µM)

Compound: CC(C)n1cnc2c(NCc3ccc(Cl)cc3)nc(NCCNCCO)nc21
- IC50 [1]: 2.02 µg/mL (≈ 5 µM)

Compound: COc1ccc(CNc2nc(N(CCO)Cc3ccccc3)nc3c2ncn3C(C)C)cc1
- IC50 [1]: 1 µg/mL (≈ 2.24 µM)

Compound: CC(C)[C@@H](CO)Nc1nc(NCc2ccc(F)cc2)c2ncn(C(C)C)c2n1
- IC50 [1]: 0.19 µg/mL (≈ 0.492 µM)

Compound: COc1ccc(CNc2nc(Cl)nc3c2ncn3C)cc1
- IC50 [1]: 6 µg/mL (≈ 19.8 µM)

Compound: CC(=O)C(C)n1cnc2c(NCc3ccc(F)cc3)nc(N(CCO)CCO)nc21 (stereo unspecified)
- IC50 [1]: 11 µg/mL (≈ 26.4 µM)

Compound: CC(C)n1cnc2c(NCc3ccc(Cl)cc3)nc(N[C@@H](C)CO)nc21
- IC50 [1]: 0.26 µg/mL (≈ 0.694 µM)

Compound: CC(C)n1cnc2c(NCc3ccc(-c4ccccn4)cc3)nc(N(CCO)CCO)nc21
- IC50 [1]: 0.16 µg/mL (≈ 0.358 µM)

Compound: COc1ccc(CNc2nc(Cl)nc3c2ncn3C(C)C)cc1
- IC50 [1]: 4 µg/mL (≈ 12.1 µM)

Compound: CSc1ccc(Nc2nc(N(CCO)CCO)nc3c2ncn3C(C)C)cc1
- IC50 [1]: 0.07 µg/mL (≈ 0.174 µM)

Compound: COC(=O)c1ccc(Cn2cnc3c(NCc4ccc(OC)cc4)nc(Cl)nc32)cc1
- IC50 [1]: > 60 µg/mL

Compound: Cc1ccc(-c2ccc(CNc3nc(N(CCO)CCO)nc4c3ncn4C(C)C)cc2)cc1
- IC50 [1]: 0.6 µg/mL (≈ 1.3 µM)

Compound: COc1ccc(CNc2nc(NCCO)nc3c2ncn3C)cc1
- IC50 [1]: 4 µg/mL (≈ 12.2 µM)

Compound: CC(C)n1cnc2c(NCc3ccc(Cl)cc3)nc(N[C@H](C)CO)nc21
- IC50 [1]: 0.35 µg/mL (≈ 0.934 µM)

Compound: COc1ccc(CNc2nc(N3CCOCC3)nc3c2ncn3C(C)C)cc1
- IC50 ([2]; ovcar): 4 µg/mL (≈ 10.5 µM)
- IC50 ([2]; panc1): 5.5 µg/mL (≈ 14.4 µM)

Compound: CC(C)n1cnc2c(NCc3ccc(Cl)cc3)nc(N(CCO)CCO)nc21
- IC50 [1]: 0.12 µg/mL (≈ 0.296 µM)
- IC50 ([2]; mrc 5): 3 µg/mL (≈ 7.41 µM)

Compound: COc1ccc(CNc2nc(Cl)nc3c2ncn3CCCC#N)cc1
- IC50 [1]: > 60 µg/mL

Compound: CC(C)n1cnc2c(NCc3ccc(-c4cccs4)cc3)nc(N(CCO)CCO)nc21
- IC50 [1]: 0.5 µg/mL (≈ 1.1 µM)

Compound: CSc1cccc(Nc2nc(N(CCO)CCO)nc3c2ncn3C(C)C)c1
- IC50 [1]: 0.1 µg/mL (≈ 0.248 µM)

Compound: CC(=O)C(C)n1cnc2c(NCc3ccc(Cl)cc3)nc(N(CCO)CCO)nc21 (stereo unspecified)
- IC50 [1]: 37 µg/mL (≈ 85.5 µM)

Compound: COc1ccc(CNc2nc(Cl)nc3c2ncn3Cc2ccccc2)cc1
- IC50 [1]: > 60 µg/mL

Compound: COc1ccc(CNc2nc(Cl)nc3c2ncn3CCC(=O)c2cccc3ccccc23)cc1
- IC50 [1]: > 60 µg/mL

Compound: COc1ccc(CNc2nc(NCC(O)CN)nc3c2ncn3C(C)C)cc1 (stereo unspecified)
- IC50 [1]: 0.6 µg/mL (≈ 1.56 µM)

Compound: CC(C)n1cnc2c(NCc3ccc(Cl)cc3)nc(N(CCO)CCNCCO)nc21
- IC50 [1]: 0.43 µg/mL (≈ 0.96 µM)

Compound: COc1cccc(CNc2nc(N(CCO)CCO)nc3c2ncn3C(C)C)c1
- IC50 [1]: 0.5 µg/mL (≈ 1.25 µM)

Compound: COc1ccc(CNc2nc(N(CCO)CCO)nc3c2ncn3C)cc1
- IC50 [1]: 4 µg/mL (≈ 10.7 µM)

Compound: CC(C)n1cnc2c(NCc3ccc(-c4ccc(C(F)(F)F)cc4)cc3)nc(N(CCO)CCO)nc21
- IC50 [1]: 0.6 µg/mL (≈ 1.17 µM)

Compound: FC(F)(F)n1cnc2c(OCc3ccc(Cl)cc3)nc(Cl)nc21
- IC50 [1]: > 60 µg/mL

Compound: COc1ccc(CNc2nc(Cl)nc3c2ncn3C(F)(C(F)(F)F)C(F)(F)F)cc1
- IC50 [1]: > 45 µg/mL

Compound: CC(C)n1cnc2c(Nc3ccc(-c4ccccc4)cc3)nc(N(CCO)CCO)nc21
- IC50 [1]: 0.6 µg/mL (≈ 1.39 µM)
- IC50 [3]: 1 µg/mL (≈ 2.31 µM)
- IC50 ([2]; caco-2): 0.5 µg/mL (≈ 1.16 µM)
- IC50 ([2]; mcf-7): 4 µg/mL (≈ 9.25 µM)
- IC50 ([2]; ovcar): 7 µg/mL (≈ 16.2 µM)
- IC50 ([2]; panc1): 4 µg/mL (≈ 9.25 µM)

Compound: COc1ccc(CNc2nc(Cl)nc3c2ncn3CC(C)C)cc1
- IC50 [1]: 60 µg/mL (≈ 173 µM)

Compound: CC(CO)Nc1nc(NCc2ccc(F)cc2)c2ncn(C(C)C)c2n1 (stereo unspecified)
- IC50 [1]: 0.18 µg/mL (≈ 0.502 µM)

Compound: COc1ccc(CNc2nc(N(CCO)CCO)nc3c2ncn3C(C)C)cc1
- IC50 [3]: 0.5 µg/mL (≈ 1.25 µM)
- MST [4]: 13 d (3×) and 11 d and 12 d

Compound: CC(C)n1cnc2c(NCc3ccc(F)cc3)nc(NC[C@@H]3CCCO3)nc21
- IC50 [1]: 0.63 µg/mL (≈ 1.64 µM)

Compound: CC(C)[C@H](CO)Nc1nc(NCc2ccc(F)cc2)c2ncn(C(C)C)c2n1
- IC50 [1]: 0.06 µg/mL (≈ 0.155 µM)

Compound: FC(F)(F)n1cnc2c(NCc3ccc(Cl)cc3)nc(Cl)nc21
- IC50 [1]: 1 µg/mL (≈ 2.76 µM)

Compound: CSc1ccc(Nc2nc(Cl)nc3c2ncn3C(C)C)cc1
- IC50 [1]: 0.6 µg/mL (≈ 1.8 µM)

Compound: CC(C)n1cnc2c(NCc3ccc(F)cc3)nc(N(CCO)CCO)nc21
- IC50 [1]: 0.15 µg/mL (≈ 0.386 µM)

Compound: COc1ccc(CNc2nc(NC(C)(CO)C(C)C)nc3c2ncn3C(C)C)cc1 (stereo unspecified)
- IC50 [1]: 1 µg/mL (≈ 2.42 µM)

Compound: CC(C)n1cnc2c(NCc3ccc4c(c3)OCO4)nc(N(CCO)CCO)nc21
- IC50 [1]: 0.8 µg/mL (≈ 1.93 µM)

Compound: COc1ccc(CNc2nc(N3CC=CC3)nc3c2ncn3C(C)C)cc1
- IC50 [1]: 1 µg/mL (≈ 2.74 µM)

Compound: CC(C)n1cnc2c(-c3cccc(OCc4ccccc4)c3)nc(N(CCO)CCO)nc21.CC(C)n1cnc2c(-c3cccc(Oc4ccccc4)c3)nc(N(CCO)CCO)nc21
- IC50 [5]: 1.5 µg/mL
- IC50 ([2]; mcf-7): 2 µg/mL
- IC50 ([2]; ovcar): 2 µg/mL
- IC50 ([2]; panc1): 2.5 µg/mL
